What was measured:
mGlu4 = mGlu4 (Homo sapiens, UniProt Q14833); conditions: cited from earlier work
[1] = system: N-methyl-D-aspartate (NMDA) receptor; conditions: at higher concentrations; cited from earlier work
[2] = intravenous administration, rhesus monkeys; cited from earlier work
cytochrome P450 1A2 = biological target: T1, cytochrome P450 1A2 (Homo sapiens, UniProt P05177); conditions: cited from earlier work
T1 sequence (P05177 1-516): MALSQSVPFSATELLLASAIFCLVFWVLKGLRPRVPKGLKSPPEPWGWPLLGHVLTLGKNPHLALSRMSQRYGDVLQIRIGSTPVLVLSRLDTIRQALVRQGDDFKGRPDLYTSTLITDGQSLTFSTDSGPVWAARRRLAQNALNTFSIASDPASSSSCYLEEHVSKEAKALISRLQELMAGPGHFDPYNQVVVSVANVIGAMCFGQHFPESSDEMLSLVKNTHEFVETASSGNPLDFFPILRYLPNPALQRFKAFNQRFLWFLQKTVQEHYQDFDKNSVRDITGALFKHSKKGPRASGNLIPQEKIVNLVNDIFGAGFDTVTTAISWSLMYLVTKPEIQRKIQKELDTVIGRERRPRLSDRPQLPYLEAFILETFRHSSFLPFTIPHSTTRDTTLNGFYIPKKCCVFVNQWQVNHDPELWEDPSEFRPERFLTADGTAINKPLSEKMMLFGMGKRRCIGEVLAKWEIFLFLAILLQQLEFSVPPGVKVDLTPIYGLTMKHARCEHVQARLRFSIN

hmGlu5 = biological target: T2, hmGlu5 (Homo sapiens, UniProt P41594); assay: mGlu5 Ca2+ flux assay in HEK 293A cells (negative allosteric modulation of glutamate EC80 response); assay type: cell-based; conditions: for remaining activity at 30 µM: HEK293-A, % Glu max at 30 μM, read-out: hmGlu5 NAM Emin (%); for IC50: HEK 293A cells, Ca2+ flux, glutamate EC80, >10,000 = decrease without plateau, read-out: hmGlu5 NAM IC50
T2 construct: expressed in transfected cells; host or cells: HEK 293A
Procedure, shortened: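 HEK 293A cells stably expressing rat or human mGlu5, Fluo-4 AM loaded; compound added 2.3 min before glutamate EC20, then EC80; Ca2+ fluorescence peak amplitudes (F/F0) normalised to glutamate max. IC50 from 4-parameter logistic fit, 10-point 1:3 curves, top 30 μM; partial NAMs plateau above 10% Glu Max.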

T2 sequence (P41594 21-1212): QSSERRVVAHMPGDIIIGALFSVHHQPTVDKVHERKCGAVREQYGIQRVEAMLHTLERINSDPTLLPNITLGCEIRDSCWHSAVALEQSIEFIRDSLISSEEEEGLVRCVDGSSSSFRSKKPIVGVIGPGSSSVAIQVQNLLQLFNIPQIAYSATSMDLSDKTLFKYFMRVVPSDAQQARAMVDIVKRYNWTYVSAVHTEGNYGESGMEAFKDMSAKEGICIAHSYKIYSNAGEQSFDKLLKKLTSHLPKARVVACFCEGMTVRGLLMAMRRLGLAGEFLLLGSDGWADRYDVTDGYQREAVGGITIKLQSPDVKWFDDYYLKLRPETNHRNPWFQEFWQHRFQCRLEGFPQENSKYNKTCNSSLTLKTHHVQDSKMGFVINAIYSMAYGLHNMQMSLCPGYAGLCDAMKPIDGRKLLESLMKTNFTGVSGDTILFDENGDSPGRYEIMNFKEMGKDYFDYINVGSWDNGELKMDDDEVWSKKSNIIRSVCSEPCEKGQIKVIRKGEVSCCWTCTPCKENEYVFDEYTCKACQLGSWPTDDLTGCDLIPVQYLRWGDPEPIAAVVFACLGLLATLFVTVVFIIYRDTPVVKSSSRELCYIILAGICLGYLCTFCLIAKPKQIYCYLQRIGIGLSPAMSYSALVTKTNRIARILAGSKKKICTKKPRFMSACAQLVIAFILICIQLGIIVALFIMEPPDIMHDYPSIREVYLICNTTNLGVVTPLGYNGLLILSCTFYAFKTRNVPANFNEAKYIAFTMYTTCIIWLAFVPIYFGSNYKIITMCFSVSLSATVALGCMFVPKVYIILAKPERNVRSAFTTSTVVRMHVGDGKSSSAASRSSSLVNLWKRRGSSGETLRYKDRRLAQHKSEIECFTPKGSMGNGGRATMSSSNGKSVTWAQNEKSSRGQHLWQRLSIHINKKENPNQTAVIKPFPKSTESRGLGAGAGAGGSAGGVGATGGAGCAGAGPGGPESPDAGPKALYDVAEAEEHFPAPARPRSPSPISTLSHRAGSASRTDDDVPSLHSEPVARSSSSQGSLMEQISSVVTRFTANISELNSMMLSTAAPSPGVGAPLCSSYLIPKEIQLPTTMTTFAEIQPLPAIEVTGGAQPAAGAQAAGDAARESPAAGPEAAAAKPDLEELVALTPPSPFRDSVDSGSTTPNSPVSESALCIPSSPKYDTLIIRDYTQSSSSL
mGlu4, sequence (Q14833 33-912): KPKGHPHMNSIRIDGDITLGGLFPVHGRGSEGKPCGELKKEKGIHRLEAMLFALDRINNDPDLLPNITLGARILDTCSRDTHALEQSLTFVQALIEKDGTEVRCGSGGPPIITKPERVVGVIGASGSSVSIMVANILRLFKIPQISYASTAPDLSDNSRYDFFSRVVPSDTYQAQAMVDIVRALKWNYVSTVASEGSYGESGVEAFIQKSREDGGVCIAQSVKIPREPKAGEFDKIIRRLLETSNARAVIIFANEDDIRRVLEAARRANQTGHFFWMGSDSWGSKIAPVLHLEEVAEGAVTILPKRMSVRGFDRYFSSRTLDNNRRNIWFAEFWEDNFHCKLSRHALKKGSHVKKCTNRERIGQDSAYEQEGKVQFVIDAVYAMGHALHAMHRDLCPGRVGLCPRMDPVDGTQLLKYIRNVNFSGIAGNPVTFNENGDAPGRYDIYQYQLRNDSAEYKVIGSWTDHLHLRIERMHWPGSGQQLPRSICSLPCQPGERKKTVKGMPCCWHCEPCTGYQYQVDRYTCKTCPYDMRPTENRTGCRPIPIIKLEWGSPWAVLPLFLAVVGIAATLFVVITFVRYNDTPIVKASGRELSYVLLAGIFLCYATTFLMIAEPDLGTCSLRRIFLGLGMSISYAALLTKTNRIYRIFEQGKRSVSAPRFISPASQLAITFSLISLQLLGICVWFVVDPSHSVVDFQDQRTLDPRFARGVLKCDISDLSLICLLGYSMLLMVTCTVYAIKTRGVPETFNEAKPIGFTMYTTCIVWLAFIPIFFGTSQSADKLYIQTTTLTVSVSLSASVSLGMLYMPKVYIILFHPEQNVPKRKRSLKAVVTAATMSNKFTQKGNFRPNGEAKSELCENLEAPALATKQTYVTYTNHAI

Row | SMILES | remaining activity at 30 µM (hmGlu5) [%] | IC50 (hmGlu5) [nM] | further results
1 | Cc1cccc(C#Cc2ccccc2)n1 [MPEP, 2-methyl-6-(phenylethynyl) pyridine] |  |  | modulation of mGlu4 (mGlu4): positive allosteric modulator; inhibition of NMDA receptor activity [1]: directly inhibit
2 | Cc1nc(C#Cc2cccnc2)cs1 [MTEP, 3-[(2-methyl-1,3-thiazol-4-yl)ethynyl]pyridine] |  |  | clearance [2]: efficiently cleared; inhibition of cytochrome P450 1A2 (cytochrome P450 1A2): potent inhibitor
3 | Cc1nc(-c2noc(-c3ccc(F)cn3)n2)cc(-c2ccc(C3CC3)nc2)c1F [Compound 31, 3-(6-cyclopropyl-5′-fluoro-6′-methyl-[3,4′-bipyridin]-2′-yl)-5-(5-fluoropyridin-2-yl)-1,2,4-oxadiazole] | 20 | 3090 | 
4 | Cc1ccncc1-c1cc(-c2noc(-c3ccncc3)n2)nc(C)c1F [Compound 93, 3-(5′-fluoro-4,6′-dimethyl-[3,4′-bipyridin]-2′-yl)-5-(pyridin-4-yl)-1,2,4-oxadiazole] | 2 | 221 | 

From patent publication US20250026743A1, “HETEROARYL-LINKED ANALOGS AS MGLU5 NEGATIVE ALLOSTERIC MODULATORS AND METHODS OF MAKING AND USING THE SAME” (Vanderbilt University, priority 2021, published 2025)
